Inconclusive results and toxic doses are left out. No stated cut-off is given here; in the data, active means T/C of 150% or more; inactive means T/C below 125%.
Tested on: L1210 leukemia ip in BDF1 mice, survival T/C
Experiment: NCI In Vivo Anticancer Drug Screen. Data for tumor model L1210 Leukemia (intraperitoneal) in B6D2F1 (BDF1) mice
Details: endpoint: mean survival time, higher = longer survival
How it was run: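 In this screen, tumor-bearing mice given compound are compared to those given vehicle, and their survival values are reported as a treated-to-control quotient.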

[1] = dose: 100.0 mg/kg/injection, schedule: Q04DX002 (ip), vehicle: Klucel (hydroxypropylcellulose) (HPC)
[2] = dose: 200.0 mg/kg/injection, schedule: Q04DX002 (ip), vehicle: Klucel (hydroxypropylcellulose) (HPC)
[3] = dose: 50.0 mg/kg/injection, schedule: Q01DX009 (ip), vehicle: Klucel (hydroxypropylcellulose) (HPC)
[4] = dose: 100.0 mg/kg/injection, schedule: Q01DX009 (ip), vehicle: Klucel (hydroxypropylcellulose) (HPC)
[5] = dose: 100.0 mg/kg/injection, schedule: Q04DX003 (ip), vehicle: saline
[6] = dose: 200.0 mg/kg/injection, schedule: Q04DX003 (ip), vehicle: saline
[7] = dose: 100.0 mg/kg/injection, schedule: Q01DX001 (ip), vehicle: saline
[8] = dose: 100.0 mg/kg/injection, schedule: Q04DX002 (ip), vehicle: saline
[9] = dose: 200.0 mg/kg/injection, schedule: Q01DX001 (ip), vehicle: saline
[10] = dose: 200.0 mg/kg/injection, schedule: Q04DX002 (ip), vehicle: saline
[11] = dose: 400.0 mg/kg/injection, schedule: Q01DX001 (ip), vehicle: saline
[12] = dose: 400.0 mg/kg/injection, schedule: Q04DX002 (ip), vehicle: saline
[13] = dose: 400.0 mg/kg/injection, schedule: Q04DX002 (ip), vehicle: Klucel (hydroxypropylcellulose) (HPC)
[14] = dose: 100.0 mg/kg/injection, schedule: Q04DX003 (ip), vehicle: Klucel (hydroxypropylcellulose) (HPC)
[15] = dose: 200.0 mg/kg/injection, schedule: Q01DX009 (ip), vehicle: Klucel (hydroxypropylcellulose) (HPC)
[16] = dose: 200.0 mg/kg/injection, schedule: Q04DX003 (ip), vehicle: Klucel (hydroxypropylcellulose) (HPC)
[17] = dose: 400.0 mg/kg/injection, schedule: Q01DX009 (ip), vehicle: Klucel (hydroxypropylcellulose) (HPC)
[18] = dose: 400.0 mg/kg/injection, schedule: Q04DX003 (ip), vehicle: Klucel (hydroxypropylcellulose) (HPC)
[19] = dose: 50.0 mg/kg/injection, schedule: Q01DX001 (ip), vehicle: saline
[20] = dose: 100.0 mg/kg/injection, schedule: Q04DX002 (ip), vehicle: saline with Tween-80
[21] = dose: 200.0 mg/kg/injection, schedule: Q04DX002 (ip), vehicle: saline with Tween-80
[22] = dose: 400.0 mg/kg/injection, schedule: Q04DX002 (ip), vehicle: saline with Tween-80
[23] = dose: 50.0 mg/kg/injection, schedule: Q01DX009 (ip), vehicle: saline
[24] = dose: 100.0 mg/kg/injection, schedule: Q01DX009 (ip), vehicle: saline
[25] = dose: 200.0 mg/kg/injection, schedule: Q01DX009 (ip), vehicle: saline

Measured: T/C

N=C(N)SC1c2ccccc2-c2cc([N+](=O)[O-])ccc21 (stereo not drawn)
inactive: dose: 100.0 mg/kg/injection, schedule: Q01DX005 (ip), vehicle: Klucel (hydroxypropylcellulose) (HPC) 105 % of control | [1] 101 % of control | dose: 200.0 mg/kg/injection, schedule: Q01DX005 (ip), vehicle: Klucel (hydroxypropylcellulose) (HPC) 98 % of control | [2] 114 % of control

O=c1nccc(Nc2ccccc2)[nH]1
inactive: dose: 25.0 mg/kg/injection, schedule: Q01DX009 (ip), vehicle: Klucel (hydroxypropylcellulose) (HPC) 98 % of control | [3] 93 % of control | [4] 98 % of control

O=c1[nH]nc(/C=C/c2ccccc2)o1
inactive: dose: 50.0 mg/kg/injection, schedule: Q04DX003 (ip), vehicle: saline 103 % of control | [5] 95 % of control | [6] 97 % of control

CC[N+]1(CC)CC[N+](CC)(CC)CC1
inactive: [7] 97 % of control | [8] 96 % of control | [9] 97 % of control | [10] 96 % of control | [11] 102 % of control | [12] 107 % of control

CCCCCCCCCCCCCCCCCCNC(=O)N(c1ccccc1)C1CCCCC1
inactive: [1] 101 % of control | [2] 93 % of control | [13] 87 % of control

O=C1NC(O)C(O)N1 (stereo not drawn)
inactive: [4] 104 % of control | [14] 100 % of control | [15] 96 % of control | [16] 96 % of control | [17] 105 % of control | [18] 100 % of control

S=C1SC2CCCCC2S1 (stereo not drawn)
inactive: dose: 25.0 mg/kg/injection, schedule: Q04DX002 (ip), vehicle: Klucel (hydroxypropylcellulose) (HPC) 100 % of control | dose: 50.0 mg/kg/injection, schedule: Q04DX002 (ip), vehicle: Klucel (hydroxypropylcellulose) (HPC) 106 % of control | [1] 95 % of control | [14] 103 % of control | [16] 94 % of control | [18] 103 % of control

O=C(O)C1(Cl)C2(Cl)C(Cl)=CC3(Cl)C(Cl)(C(=O)O)C2(Cl)C31Cl (stereo not drawn)
inactive: [19] 108 % of control | [7] 103 % of control | [9] 101 % of control | [11] 97 % of control

O=S(=O)(Nc1cc(C(F)(F)F)ccc1Cl)c1ccc(Cl)cc1
inactive: [8] 90 % of control | [10] 106 % of control | [12] 97 % of control

[O]=[Sn]([OH])[c]1ccccc1
inactive: [20] 102 % of control | [21] 105 % of control | [22] 94 % of control

CCC(=O)O[C@H]1CC[C@H]2[C@@H]3CC[C@H]4CC(=O)[C@H](C)C[C@]4(C)[C@H]3CC[C@]12C
inactive: dose: 44.13 mg/kg/injection, schedule: Q01DX Z (sc), vehicle: steriod suspending solution 96 % of control | dose: 88.25 mg/kg/injection, schedule: Q01DX Z (sc), vehicle: steriod suspending solution 104 % of control | dose: 176.5 mg/kg/injection, schedule: Q01DX Z (sc), vehicle: steriod suspending solution 103 % of control | dose: 353.0 mg/kg/injection, schedule: Q01DX Z (sc), vehicle: steriod suspending solution 100 % of control

Cc1cc(Cl)cc(Cl)c1OCC(=O)O
inactive: [1] 98 % of control | [2] 95 % of control | [13] 95 % of control

COC1CC2c3ccccc3C1C(C)=[N+]2C (stereo not drawn)
inactive: [23] 97 % of control | [24] 101 % of control | [5] 102 % of control | [25] 100 % of control | [6] 97 % of control | dose: 400.0 mg/kg/injection, schedule: Q04DX003 (ip), vehicle: saline 102 % of control

CCCC1OC(C)C(C)O1 (stereo not drawn)
inactive: [3] 101 % of control | [4] 101 % of control | [15] 101 % of control

Nc1ncnc2c1ncn2C1C=COC(CO)C1O (stereo not drawn)
inactive: dose: 100.0 mg/kg/injection, schedule: Q01DX005 (ip), vehicle: saline 100 % of control | dose: 200.0 mg/kg/injection, schedule: Q01DX005 (ip), vehicle: saline 97 % of control

CC1(C)N=C(N)N=C(N)N1c1cccc(OCCCOc2ccc([N+](=O)[O-])cc2)c1
inactive: [7] 91 % of control

O=C1CCc2ccccc2/C1=C\c1ccccc1
inactive: dose: 100.0 mg/kg/injection, schedule: Q04DX003 (ip), vehicle: saline with Tween-80 98 % of control | dose: 200.0 mg/kg/injection, schedule: Q04DX003 (ip), vehicle: saline with Tween-80 97 % of control | dose: 400.0 mg/kg/injection, schedule: Q04DX003 (ip), vehicle: saline with Tween-80 92 % of control

C[N+]1(C2CCC3CCC2C3O)CCCCC1 (stereo not drawn)
inactive: [23] 100 % of control | [24] 110 % of control | [5] 101 % of control | [25] 110 % of control | [6] 101 % of control

Cc1c(C)c(CN)c(C)c(C)c1CN
inactive: [4] 91 % of control | [14] 103 % of control | [15] 100 % of control | [16] 98 % of control

COc1ccc(CN2CCCN(Cc3ccc(OC)cc3OC)C2c2ccc(N(C)C)cc2Cl)c(OC)c1
inactive: [19] 97 % of control | [7] 101 % of control | [9] 95 % of control | [11] 95 % of control

O=CC(C=O)[N+](=O)[O-]
inactive: [4] 100 % of control | [1] 97 % of control | [14] 97 % of control | [15] 105 % of control | [2] 94 % of control | [16] 102 % of control | [17] 108 % of control | [13] 105 % of control | [18] 102 % of control

CCCCCCCN(CCCCCCC)C(=O)N(CC)CC
inactive: [20] 93 % of control | [21] 93 % of control | [22] 97 % of control

C=CC(O)CCCCCC (stereo not drawn)
inactive: dose: 50.0 mg/kg/injection, schedule: Q01DX001 (ip), vehicle: carboxymethylcellulose (CMC) 97 % of control | dose: 100.0 mg/kg/injection, schedule: Q01DX001 (ip), vehicle: carboxymethylcellulose (CMC) 101 % of control | dose: 200.0 mg/kg/injection, schedule: Q01DX001 (ip), vehicle: carboxymethylcellulose (CMC) 95 % of control | dose: 400.0 mg/kg/injection, schedule: Q01DX001 (ip), vehicle: carboxymethylcellulose (CMC) 103 % of control

COc1ccc(Cl)cc1NC(=O)C(Br)C(Br)C(=O)O (stereo not drawn)
inactive: dose: 100.0 mg/kg/injection, schedule: Q01DX009 (ip), vehicle: other 96 % of control | dose: 200.0 mg/kg/injection, schedule: Q01DX009 (ip), vehicle: other 100 % of control

C[n+]1cccc2cc(NC(=O)c3ccc(C(=O)Nc4ccc5c(ccc[n+]5C)c4)cc3)ccc21
inactive: dose: 0.94 mg/kg/injection, schedule: Q01DX Z (ip), vehicle: saline 94 % of control | dose: 1.88 mg/kg/injection, schedule: Q01DX Z (ip), vehicle: saline 92 % of control | dose: 30.0 mg/kg/injection, schedule: Q01DX010 (oral), vehicle: saline 100 % of control | dose: 240.0 mg/kg/injection, schedule: Q01DX010 (oral), vehicle: saline 100 % of control
